This note sets out measurements from patent publication US5863944A, “Compounds and compositions for delivering active agents” (Emisphere Technologies, Inc., priority 1997, dated 1999).

By solubility is commonly meant how much of the substance goes into solution per volume. Read a high solubility as a readily soluble substance.

In brackets after ≈: the same amount, converted by molar mass.

The data set can be described thus: Carrier properties: solubility. In kind it is physicochemical. The conditions noted are these: for Solubility (appearance): 200 mg/mL.

For `O=C(O)CCCCCCCC(=O)Nc1cc(Cl)ccc1O` [Compound 3, 8-(2-hydroxy-5-chloroanilinocarbonyl)octanoic acid], the “Solubility (appearance)” value (pH = 8.28) is “soluble”. This compound yielded a solubility (soluble at pH = 8.28) of 200 mg/mL (≈ 637 mM).

As to `Nc1ccc(F)cc1C(=O)NCCCCCCCC(=O)O` [Compound 1, N-(2-Amino-5-fluorobenzoyl)-8-aminocaprylic Acid], for the setting “pH = 8.7”, the “Solubility (appearance)” value is recorded as “slightly milky”. The solubility (pH 8.7) is 200 mg/mL (≈ 675 mM).

On to `Nc1ccc(F)cc1C(=O)Nc1ccc(CCCC(=O)O)cc1` [Compound 2, 4-(N-(2-amino-5-fluorobenzoyl)-4-aminophenyl)butyric], for which the “Solubility (appearance)” value (pH = 8.44) is “milky suspension”. In addition, the solubility (pH 8.44) was found to be 200 mg/mL (≈ 632 mM).
